{"source": "patent EP0934745B1", "about": "“Use of androsterone derivatives for inhibiting DNA binding of ap-1 and airway smooth muscle proliferation” (CHARLOTTE-MECKLENBURG HOSPITAL doing business as Carolinas …, priority 1998, dated 1999)", "test_system": "transcription factor activator protein-1 (AP-1)", "assay": "Electrophoretic mobility shift assay of DNA binding of AP-1 in nuclear protein from treated cells", "format": "cell-based, rat", "details": "pretreated 2 hours, then 10% FBS 6 hours; 50 µM DHEA; 2 and 10 µM 16α-BrEA (Figures 8A, 8B)", "method": "To study the effect of DHEA and 16α-BrEA on activation of AP-1, a secondary response important in cellular growth and proliferation (Angel and Karin, (1991), supra) confluent monolayers of airway smooth muscle in 75-cm^2 Petri dishes were growth arrested for 24 hours in 0.5% FBS and DMEM and pretreated 2 hours with DHEA, 16α-BrEA or DMSO vehicle. Cells were then stimulated with 10% FBS in DMEM for 6 hours, nuclear protein was harvested, and electrophoretic mobility shift assays were performed as described below to determine if treatment with DHEA and 16α-BrEA impaired DNA binding of AP-1. Measurement of Cytotoxicity and Apoptosis. To assess for cytotoxicity, DHEA or 16α-BrEA were added to wells of airway smooth muscle cells previously grown to confluence in DMEM and 10% FBS. After 24 hours, media was microfuged 5 minutes and supernatant was assayed for lactate dehydrogenase activity using a commercially available assay (DG-1340K from Sigma). Cells were washed twice in DPBS and exposed to trypan blue dye (0.04% in Hanks' balanced salt solution). Cell counts were performed in five random fields using a 0.01-cm^2 ocular grid to quantitate the average number of damaged or dead cells that accumulated dye.\nRNA (100 ng) was reverse-transcribed using M-MLV reverse transcriptase. […] The resulting polaroid negative was quantitated using a Bio Image Analyzer (Bio Image, Ann Arbor, MI). […]"}
{"smiles": "C[C@]12CC[C@H](O)C[C@@H]1CC[C@@H]1[C@@H]2CC[C@]2(C)C(=O)[C@H](Br)C[C@@H]12", "note": "[16α-BrEA, 16α-bromoepiandrosterone]", "values": [{"measurement": "DNA binding of AP-1", "result": "inhibit DNA binding of AP-1"}]}
{"smiles": "C[C@]12CC[C@H](O)CC1=CC[C@@H]1[C@@H]2CC[C@]2(C)C(=O)CC[C@@H]12", "note": "[DHEA, dehydroepiandrosterone]", "values": [{"measurement": "DNA binding of AP-1", "result": "inhibit DNA binding of AP-1"}]}
